Test results taken from ChEMBL document CHEMBL1255492, “Molecular characterization of beta-lactamase genes and their genetic structures in Acinetobacter genospecies 3 isolates in Taiwan” (2010).
In brackets after ≈: the same amount, converted by molar mass.

Tests used:
Type in all cases: functional
Acinetobacter pittii [1] = assay: Antibacterial activity against Pulsotype M Acinetobacter genomosp. 3 isolate 5 containing IMP-1, OXA-58, ADC-43, ISAba2, ISAba3, IS1008, intI1 genetic elements by broth micro dilution
Acinetobacter pittii [2] = assay: Antibacterial activity against Pulsotype J Acinetobacter genomosp. 3 isolate 15 containing IMP-1, OXA-58, ADC-18, ISAba1, ISAba3, IS1008, intI1 genetic elements by broth micro dilution
Acinetobacter pittii [3] = assay: Antibacterial activity against Pulsotype C Acinetobacter genomosp. 3 isolate 1 containing IMP-1, OXA-58, ADC-18, ISAba1, ISAba3, IS1008, intI1 genetic elements by broth micro dilution
Acinetobacter pittii [4] = assay: Antibacterial activity against Pulsotype I Acinetobacter genomosp. 3 isolate 11 containing IMP-1, OXA-58, ADC-18, ISAba1, ISAba3, IS1008, intI1 genetic elements by broth micro dilution
Acinetobacter pittii [5] = assay: Antibacterial activity against Pulsotype D Acinetobacter genomosp. 3 isolate 18 containing IMP-1, OXA-58, ADC-18, ISAba1, ISAba3, repAcil, IS1008, intI1 genetic elements by broth micro dilution
Acinetobacter pittii [6] = assay: Antibacterial activity against Pulsotype F Acinetobacter genomosp. 3 isolate 4 containing IMP-1, OXA-58, ADC-18, ISAba1, ISAba3, IS18, IS1008, intI1 genetic elements by broth micro dilution
Acinetobacter pittii [7] = assay: Antibacterial activity against Acinetobacter genomosp. 3 isolates by broth micro dilution
Acinetobacter pittii [8] = assay: Antibacterial activity against Pulsotype L Acinetobacter genomosp. 3 isolate 2 containing IMP-8, OXA-58, ADC-43, ISAba1, ISAba3, IS1008, intI1 genetic elements by broth micro dilution
Acinetobacter pittii [9] = assay: Antibacterial activity against Pulsotype B Acinetobacter genomosp. 3 isolate 8 containing IMP-1, OXA-58, ADC-18, ISAba1, ISAba3, IS1008, intI1 genetic elements by broth micro dilution
Acinetobacter pittii [10] = assay: Antibacterial activity against Pulsotype K Acinetobacter genomosp. 3 isolate 6 containing IMP-1, OXA-58, ADC-18, ISAba1, ISAba3, IS1008, intI1 genetic elements by broth micro dilution
Acinetobacter pittii [11] = assay: Antibacterial activity against Pulsotype I Acinetobacter genomosp. 3 isolate 10 containing IMP-1, OXA-58, ADC-18, ISAba1, ISAba3, IS1008, intI1 genetic elements by broth micro dilution
Acinetobacter pittii [12] = assay: Antibacterial activity against Pulsotype L Acinetobacter genomosp. 3 isolate 7 containing IMP-1, OXA-58, ADC-18, ISAba1, ISAba3, IS1008, intI1 genetic elements by broth micro dilution
Acinetobacter pittii [13] = assay: Antibacterial activity against Acinetobacter genomosp. 3 isolates assessed as percent of resistance isolates by broth micro dilution
Acinetobacter pittii [14] = assay: Antibacterial activity against Pulsotype J Acinetobacter genomosp. 3 isolate 15 containing IMP-1, OXA-58, ADC-18, ISAba1, ISAba3, IS1008, intI1 genetic elements by agar dilution method
Acinetobacter pittii [15] = assay: Antibacterial activity against Pulsotype M Acinetobacter genomosp. 3 isolate 5 containing IMP-1, OXA-58, ADC-43, ISAba2, ISAba3, IS1008, intI1 genetic elements by agar dilution method
Acinetobacter pittii [16] = assay: Antibacterial activity against Pulsotype I Acinetobacter genomosp. 3 isolate 11 containing IMP-1, OXA-58, ADC-18, ISAba1, ISAba3, IS1008, intI1 genetic elements by agar dilution method
Acinetobacter pittii [17] = assay: Antibacterial activity against Pulsotype K Acinetobacter genomosp. 3 isolate 6 containing IMP-1, OXA-58, ADC-18, ISAba1, ISAba3, IS1008, intI1 genetic elements by agar dilution method
Acinetobacter pittii [18] = assay: Antibacterial activity against Pulsotype F Acinetobacter genomosp. 3 isolate 4 containing IMP-1, OXA-58, ADC-18, ISAba1, ISAba3, IS18, IS1008, intI1 genetic elements by agar dilution method
Acinetobacter pittii [19] = assay: Antibacterial activity against Pulsotype B Acinetobacter genomosp. 3 isolate 8 containing IMP-1, OXA-58, ADC-18, ISAba1, ISAba3, IS1008, intI1 genetic elements by agar dilution method
Acinetobacter pittii [20] = assay: Antibacterial activity against Pulsotype L Acinetobacter genomosp. 3 isolate 7 containing IMP-1, OXA-58, ADC-18, ISAba1, ISAba3, IS1008, intI1 genetic elements by agar dilution method
Acinetobacter pittii [21] = assay: Antibacterial activity against Pulsotype L Acinetobacter genomosp. 3 isolate 2 containing IMP-8, OXA-58, ADC-43, ISAba1, ISAba3, IS1008, intI1 genetic elements by agar dilution method
Acinetobacter pittii [22] = assay: Antibacterial activity against Pulsotype C Acinetobacter genomosp. 3 isolate 1 containing IMP-1, OXA-58, ADC-18, ISAba1, ISAba3, IS1008, intI1 genetic elements by agar dilution method
Acinetobacter pittii [23] = assay: Antibacterial activity against Acinetobacter genomosp. 3 isolates assessed as percent of resistance isolates by agar dilution method
Acinetobacter pittii [24] = assay: Antibacterial activity against Pulsotype D Acinetobacter genomosp. 3 isolate 18 containing IMP-1, OXA-58, ADC-18, ISAba1, ISAba3, repAcil, IS1008, intI1 genetic elements by agar dilution method
Acinetobacter pittii [25] = assay: Antibacterial activity against Acinetobacter genomosp. 3 isolates by agar dilution method
Acinetobacter pittii [26] = assay: Antibacterial activity against Pulsotype I Acinetobacter genomosp. 3 isolate 10 containing IMP-1, OXA-58, ADC-18, ISAba1, ISAba3, IS1008, intI1 genetic elements by agar dilution method
Enterobacteriaceae [27] = assay: Antibacterial activity against Enterobacteriaceae assessed as resistant breakpoint by CLSI method
Enterobacteriaceae [28] = assay: Antibacterial activity against Enterobacteriaceae assessed as susceptibility breakpoint by CLSI method
Enterobacteriaceae [29] = assay: Antibacterial activity against Enterobacteriaceae assessed as intermediate breakpoint by CLSI method

Molecule | MIC (Acinetobacter pittii [1]) | MIC (Acinetobacter pittii [2]) | MIC (Acinetobacter pittii [3]) | MIC (Acinetobacter pittii [4]) | MIC (Acinetobacter pittii [5]) | MIC (Acinetobacter pittii [6]) | MIC50 (Acinetobacter pittii [7]) | MIC90 (Acinetobacter pittii [7]) | MIC (Acinetobacter pittii [8]) | MIC (Acinetobacter pittii [9]) | MIC (Acinetobacter pittii [10]) | MIC (Acinetobacter pittii [11]) | MIC (Acinetobacter pittii [12]) | Activity (Acinetobacter pittii [13]) | further results
CO/N=C(\C(=O)N[C@@H]1C(=O)N2C(C(=O)[O-])=C(C[N+]3(C)CCCC3)CS[C@H]12)c1csc(N)n1 [CEFEPIME] | > 16 µg/mL | > 16 µg/mL | > 16 µg/mL | > 16 µg/mL | > 16 µg/mL | > 16 µg/mL | ≥ 32 µg/mL | ≥ 32 µg/mL | > 16 µg/mL | > 16 µg/mL | > 16 µg/mL | > 16 µg/mL | > 16 µg/mL | 63.2% | –
CCN1CCN(C(=O)N[C@@H](C(=O)N[C@@H]2C(=O)N3[C@@H]2SC(C)(C)[C@@H]3C(=O)O)c2ccccc2)C(=O)C1=O [PIPERACILLIN] | > 64 µg/mL | > 64 µg/mL | > 64 µg/mL | > 64 µg/mL | 32 µg/mL (≈ 61.8 µM) | > 64 µg/mL | ≥ 128 µg/mL | ≥ 128 µg/mL | > 64 µg/mL | > 64 µg/mL | > 64 µg/mL | > 64 µg/mL | > 64 µg/mL | 63.2% | –
CC(C)(O/N=C(\C(=O)N[C@@H]1C(=O)N2C(C(=O)[O-])=C(C[n+]3ccccc3)CS[C@H]12)c1csc(N)n1)C(=O)O [CEFTAZIDIME] | > 32 µg/mL | > 32 µg/mL | > 32 µg/mL | > 32 µg/mL | > 32 µg/mL | > 32 µg/mL | ≥ 64 µg/mL | ≥ 64 µg/mL | > 32 µg/mL | > 32 µg/mL | > 32 µg/mL | > 32 µg/mL | > 32 µg/mL | 68.4% | –
C[C@H]1[C@H](NC(=O)/C(=N\OC(C)(C)C(=O)O)c2csc(N)n2)C(=O)N1S(=O)(=O)O [AZTREONAM] | > 16 µg/mL | > 16 µg/mL | > 16 µg/mL | > 16 µg/mL | > 16 µg/mL | > 16 µg/mL | ≥ 32 µg/mL | ≥ 32 µg/mL | > 16 µg/mL | > 16 µg/mL | > 16 µg/mL | > 16 µg/mL | > 16 µg/mL | 94.7% | –
O=C(O)c1cn(C2CC2)c2cc(N3CCNCC3)c(F)cc2c1=O [CIPROFLOXACIN] | – | – | – | – | – | – | 0.25 µg/mL (≈ 0.754 µM) | 2 µg/mL (≈ 6.04 µM) | – | – | – | – | – | 5.3% | –
NCC[C@H](O)C(=O)N[C@@H]1C[C@H](N)[C@@H](O[C@H]2O[C@H](CN)[C@@H](O)[C@H](O)[C@H]2O)[C@H](O)[C@H]1O[C@H]1O[C@H](CO)[C@@H](O)[C@H](N)[C@H]1O [AMIKACIN] | – | – | – | – | – | – | 32 µg/mL (≈ 54.6 µM) | ≥ 64 µg/mL | – | – | – | – | – | 52.6% | –
C[C@@H](O)[C@H]1C(=O)N2C(C(=O)O)=C(SCCNC=N)C[C@H]12 [IMIPENEM ANHYDROUS] | 16 µg/mL (≈ 53.4 µM) | 16 µg/mL (≈ 53.4 µM) | 32 µg/mL (≈ 107 µM) | 32 µg/mL (≈ 107 µM) | 32 µg/mL (≈ 107 µM) | 64 µg/mL (≈ 214 µM) | 16 µg/mL (≈ 53.4 µM) | 32 µg/mL (≈ 107 µM) | 32 µg/mL (≈ 107 µM) | 32 µg/mL (≈ 107 µM) | 16 µg/mL (≈ 53.4 µM) | 32 µg/mL (≈ 107 µM) | 32 µg/mL (≈ 107 µM) | 57.9% | –
CC1(C)[C@H](C(=O)O)N2C(=O)C[C@H]2S1(=O)=O [SULBACTAM] | – | – | – | – | – | – | – | – | – | – | – | – | – | – | MIC (Acinetobacter pittii [14]): 4 µg/mL (≈ 17.1 µM); MIC (Acinetobacter pittii [15]): 2 µg/mL (≈ 8.57 µM); MIC (Acinetobacter pittii [16]): 4 µg/mL (≈ 17.1 µM); MIC (Acinetobacter pittii [17]): 4 µg/mL (≈ 17.1 µM); MIC (Acinetobacter pittii [18]): 2 µg/mL (≈ 8.57 µM); MIC (Acinetobacter pittii [19]): 2 µg/mL (≈ 8.57 µM); MIC (Acinetobacter pittii [20]): 4 µg/mL (≈ 17.1 µM); MIC (Acinetobacter pittii [21]): 4 µg/mL (≈ 17.1 µM); MIC (Acinetobacter pittii [22]): 4 µg/mL (≈ 17.1 µM); Activity (Acinetobacter pittii [23]): 0%; MIC (Acinetobacter pittii [24]): 4 µg/mL (≈ 17.1 µM); MIC50 (Acinetobacter pittii [25]): 2 µg/mL (≈ 8.57 µM); MIC90 (Acinetobacter pittii [25]): 4 µg/mL (≈ 17.1 µM); MIC (Acinetobacter pittii [26]): 4 µg/mL (≈ 17.1 µM)
NC[C@H]1O[C@H](O[C@H]2[C@H](O)[C@@H](O[C@H]3O[C@H](CO)[C@@H](O)[C@H](N)[C@H]3O)[C@H](N)C[C@@H]2N)[C@H](N)C[C@@H]1O [TOBRAMYCIN] | – | – | – | – | – | – | 8 µg/mL (≈ 17.1 µM) | ≥ 16 µg/mL | – | – | – | – | – | 42.1% | –
C[C@@H](O)[C@H]1C(=O)N2C(C(=O)O)=C(S[C@@H]3CN[C@H](C(=O)N(C)C)C3)[C@H](C)[C@H]12 [MEROPENEM] | 16 µg/mL (≈ 41.7 µM) | 32 µg/mL (≈ 83.4 µM) | 16 µg/mL (≈ 41.7 µM) | 16 µg/mL (≈ 41.7 µM) | 32 µg/mL (≈ 83.4 µM) | 64 µg/mL (≈ 167 µM) | 16 µg/mL (≈ 41.7 µM) | 32 µg/mL (≈ 83.4 µM) | 16 µg/mL (≈ 41.7 µM) | 16 µg/mL (≈ 41.7 µM) | 32 µg/mL (≈ 83.4 µM) | 32 µg/mL (≈ 83.4 µM) | 16 µg/mL (≈ 41.7 µM) | 57.9% | –
CN(C)c1cc(NC(=O)CNC(C)(C)C)c(O)c2c1C[C@H]1C[C@H]3[C@H](N(C)C)C(O)=C(C(N)=O)C(=O)[C@@]3(O)C(O)=C1C2=O [TIGECYCLINE] | – | – | – | – | – | – | 0.12 µg/mL (≈ 0.205 µM) | 0.5 µg/mL (≈ 0.854 µM) | – | – | – | – | – | 0% | Activity (Enterobacteriaceae [27]): >=8 ug ml-1; Activity (Enterobacteriaceae [28]): <=2 ug ml-1; Activity (Enterobacteriaceae [29]): 4 µg/mL
COLISTIN | – | – | – | – | – | – | 1 µg/mL | 2 µg/mL | – | – | – | – | – | 0% | –
GENTAMICIN | – | – | – | – | – | – | 8 µg/mL | > 16 µg/mL | – | – | – | – | – | 52.6% | –
CO/N=C(\C(=O)N[C@@H]1C(=O)N2C(C(=O)O)=C(CSc3nc(=O)c(O)nn3C)CS[C@H]12)c1csc(N)n1 [CEFTRIAXONE] | > 32 µg/mL | > 32 µg/mL | > 32 µg/mL | > 32 µg/mL | > 32 µg/mL | > 32 µg/mL | ≥ 64 µg/mL | ≥ 64 µg/mL | > 32 µg/mL | > 32 µg/mL | > 32 µg/mL | > 32 µg/mL | > 32 µg/mL | 63.2% | –
